The source of these data is patent US20260008787A1, “FUSED RING KRAS INHIBITORS FOR TREATING DISEASE” (BLOSSOMHILL THERAPEUTICS, INC., priority 2022, published 2026).

Assay [1] relates to GP2D (KRAS G12D). Nature of the assay: Cell proliferation assay Method B (5 days), GP2D. As to conditions: 120 h, 96-well, read-out: Anti-Cell Proliferation IC50 (nM), GP2D. Format: cell-based. On the procedure:
(§1) Method B: Two thousand KRAS mutant cells per well were seeded in 96-well black plate and then treated with indicated compounds for 5 days at 37° C. and 5% CO2. Cell proliferation was measured using CellTiter-Glo 2.0 luciferase-based ATP detection assay (Promega, Madison, WI) following the manufacturer's protocol. IC50 values were determined using Prism software (GraphPad Software, San Diego, CA).

In the next assay the test system is H358 (KRAS G12C). Kind of assay: Cell proliferation assay Method B (5 days), H358. Format: cell-based. As to conditions: Homo sapiens, NCI-H358, 120 h, 96-well, read-out: Anti-Cell Proliferation IC50 (nM), H358. On the procedure:
as §1

In a further assay the test system is H23 (KRAS G12C). Nature of the assay: Cell proliferation assay Method B (5 days), H23. As to conditions: 120 h, 96-well, read-out: Anti-Cell Proliferation IC50 (nM), H23. It is filed as cell-based. On the procedure: as §1
Another assay has as its system HCT116 (KRAS G13D). Kind of assay: Cell proliferation assay Method B (5 days), HCT116. Format: cell-based. As to conditions: Homo sapiens, HCT-116, 120 h, 96-well, read-out: Anti-Cell Proliferation IC50 (nM), HCT116. On the procedure: as §1
The test system of a further assay is AGS (KRAS G12D). Nature of the assay: Cell proliferation assay Method B (5 days), AGS. It is filed as cell-based. The settings on record: 120 h, 96-well, read-out: Anti-Cell Proliferation IC50 (nM), AGS. On the procedure:
as §1

Assay [2] deals with GP2D (KRAS G12D). Nature of the assay: Cell proliferation assay (CellTiter-Glo, 72 hours), GP2D. The settings on record: GP2d, 72 h, 384-well, CellTiter-Glo 2.0. It is filed as cell-based. On the procedure:
(§2) Two thousand KRAS mutant cells per well were seeded in 384-well white plate and then treated with indicated compounds for 72 hours at 37° C. and 5% CO2. Cell proliferation was measured using CellTiter-Glo 2.0 luciferase-based ATP detection assay (Promega, Madison, WI) following the manufacturer's protocol. IC50 values were determined using Prism software (GraphPad Software, San Diego, CA).

Another assay concerns PANC0504 (KRAS G12D). Kind of assay: Cell proliferation assay Method B (5 days), PANC0504. It is filed as cell-based. As to conditions: Panc 05.04, 120 h, 96-well, read-out: Anti-Cell Proliferation IC50 (nM), PANC0504. On the procedure: as §1
The test system of assay [3] is Phospho-ERK in HCT116 (KRAS G13D) cells. Nature of the assay: Kinase phosphorylation assay (Phospho-ERK), HCT116. Format: cell-based. The settings on record: Homo sapiens, HCT-116, 3 hours treatment, normalized to β-actin, read-out: pERK ½ IC50 (nM), HCT116. On the procedure:
(§3) KRAS mutant cells were plated in clear bottom 96 well plates at a density of 50,000-120,000 cells per well. Cells were allowed to attach overnight and then treated with compounds for 3 hours. After treatment, cells were fixed with 10% buffered formalin for 20 minutes at room temperature, washed with PBS, and then permeabilized with ice cold 100% methanol for 10 minutes to overnight at −20° C. Odyssey Blocking Buffer (LiCOR Biosciences: 927-60001) was added to each well for 1 hour at room temperature prior to incubation with primary antibodies overnight at 4° C. The primary antibodies used were as follows: Phospho-ERK (Cell Signaling: CS-9101) diluted to 1:250 and […] (Cell Signaling: CS-3700) diluted to 1:2000 in Odyssey Blocking Buffer+0.05% Tween20. Plates were washed 3× with Wash Buffer (PBS+0.1% Tween20) and incubated with secondary antibodies for 2 hours at room temperature. The following secondary antibodies were used: goat anti-rabbit-800 (LI-COR: 926-32211) and goat anti-mouse-680 (LICOR: 926-68070) both diluted to 1:2000 in Odyssey Blocking Buffer+0.05% Tween20. […] Phospho-ERK signal was normalized to β-actin signal for each well and the percent of DMSO control values were calculated. IC50 values were calculated using the sigmoidal dose-response (variable slope) equation in GraphPad Prism 4.

Assay [4] deals with SW620 (KRAS G12V). Kind of assay: Cell proliferation assay Method B (5 days), SW620. The settings on record: Homo sapiens, SW-620, 120 h, 96-well, read-out: Anti-Cell Proliferation IC50 (nM), SW620. It is filed as cell-based. On the procedure: as §1
The next assay deals with CAPAN-2 (KRAS G12V). Nature of the assay: Cell proliferation assay Method B (5 days), CAPAN-2. Format: cell-based. As to conditions: Homo sapiens, Capan-2, 120 h, 96-well, read-out: Anti-Cell Proliferation IC50 (nM), CAPAN-2. On the procedure:
as §1

Another assay deals with AGS (G12D). Kind of assay: Cell proliferation assay (CellTiter-Glo, 72 hours), AGS. The settings on record: 72 h, 384-well, CellTiter-Glo 2.0. Format: cell-based. On the procedure:
as §2
On the technique in general: ATP-based viability assays read luminescence as a measure of living cells.

Assay [5] relates to Phospho-ERK in SW620 (KRAS G12V) cells. Kind of assay: Kinase phosphorylation assay (Phospho-ERK), SW620. Format: cell-based. As to conditions: Homo sapiens, SW-620, 3 hours treatment, normalized to β-actin, read-out: pERK ½ IC50 (nM), SW620. On the procedure:
as §3

For assay [6], the system named is Phospho-ERK in AGS (KRAS G12D) cells. Kind of assay: Kinase phosphorylation assay (Phospho-ERK), AGS. Format: cell-based. The settings on record: 3 hours treatment, normalized to β-actin, read-out: pERK ½ IC50 (nM), AGS. On the procedure: as §3
Another assay concerns H2291 (KRAS G12F). Kind of assay: Cell proliferation assay Method B (5 days), H2291. As to conditions: Homo sapiens, NCI-H2291, 120 h, 96-well, read-out: Anti-Cell Proliferation IC50 (nM), H2291. Format: cell-based. On the procedure: as §1
Assay [7] deals with Phospho-ERK in H2291 (KRAS G12F) cells. Kind of assay: Kinase phosphorylation assay (Phospho-ERK), H2291. As to conditions: Homo sapiens, NCI-H2291, 3 hours treatment, normalized to β-actin, read-out: pERK ½ IC50 (nM), H2291. It is filed as cell-based. On the procedure:
as §3

A further assay concerns HPAC (KRAS G12D). Nature of the assay: Cell proliferation assay Method B (5 days), HPAC. Format: cell-based. As to conditions: Homo sapiens, 120 h, 96-well, read-out: Anti-Cell Proliferation IC50 (nM), HPAC. On the procedure:
as §1

A further assay relates to AsPC1 (KRAS G12D). Nature of the assay: Cell proliferation assay Method B (5 days), AsPC1. It is filed as cell-based. The settings on record: Homo sapiens, ASPC1, 120 h, 96-well, read-out: Anti-Cell Proliferation IC50 (nM), AsPC1. On the procedure:
as §1

In a further assay the test system is PANC0403 (KRAS G12D). Kind of assay: Cell proliferation assay Method B (5 days), PANC0403. It is filed as cell-based. As to conditions: Homo sapiens, Panc 04.03, 120 h, 96-well, read-out: Anti-Cell Proliferation IC50 (nM), PANC0403. On the procedure:
as §1

In assay [8] the test system is SW620 (KRAS G12V). Nature of the assay: Cell proliferation assay (CellTiter-Glo, 72 hours), SW620. Format: cell-based. As to conditions: Homo sapiens, SW-620, 72 h, 384-well, CellTiter-Glo 2.0. On the procedure: as §2
A further assay deals with MiaPaCa2 (KRAS G12C). Nature of the assay: Cell proliferation assay Method B (5 days), MiaPaCa2. The settings on record: Homo sapiens, MIA PaCa-2, 120 h, 96-well, read-out: Anti-Cell Proliferation IC50 (nM), MiaPaCa2. It is filed as cell-based. On the procedure: as §1
Another assay has as its target KRAS G12D (Homo sapiens, UniProt P01116, G12D). Kind of assay: biochemical.
In a further assay the target is KRAS G12V (Homo sapiens, UniProt P01116, G12V). Kind of assay: biochemical.
KRAS G12V, sequence (P01116 1-188 isoform P01116-2 G12V): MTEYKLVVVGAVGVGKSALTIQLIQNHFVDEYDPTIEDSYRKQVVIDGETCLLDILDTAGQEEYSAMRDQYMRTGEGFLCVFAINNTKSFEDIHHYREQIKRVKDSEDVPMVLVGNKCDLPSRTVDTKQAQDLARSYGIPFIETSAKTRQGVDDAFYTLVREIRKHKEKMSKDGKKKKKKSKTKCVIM

KRAS G12D, sequence (P01116 1-188 isoform P01116-2 G12D): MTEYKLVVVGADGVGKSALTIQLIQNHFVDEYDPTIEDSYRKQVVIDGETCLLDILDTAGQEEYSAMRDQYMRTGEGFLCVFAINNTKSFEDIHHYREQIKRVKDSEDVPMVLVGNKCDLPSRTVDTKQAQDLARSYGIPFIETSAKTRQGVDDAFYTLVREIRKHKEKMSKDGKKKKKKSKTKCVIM

In the case of `C#Cc1c(F)ccc2cc(O)cc(-c3nc4c5c(nc(OC[C@@]67CCCN6C[C@H](F)C7)nc5c3F)N3CCCC[C@H]3CO4)c12` [compound 1, 5-ethynyl-6-fluoro-4-((S)-4-fluoro-2-(((2R,7aS)-2-fluorotetrahydro-1H-pyrrolizin-7a(5H)-yl)methoxy)-8,8a,9,10,11,12-hexahydro-7-oxa-1,3,6,12a-tetraazabenzo[4,5]cyclohepta[1,2,3-de]naphthalen-5-yl)naphthalen-2-ol], the IC50 was 2.8 nM in the assay with GP2D (KRAS G12D) [1]; 49.2 nM in the assay with H358 (KRAS G12C); 47.4 nM with H23 (KRAS G12C); 474 nM with HCT116 (KRAS G13D); 14.8 nM with AGS (KRAS G12D); 2.51 nM in the assay with GP2D (KRAS G12D) [2]. Moreover, the IC50 is 9 nM with PANC0504 (KRAS G12D); 14.1 nM in assay [3]; 9.6 nM with SW620 (KRAS G12V) [4]; 35.2 nM with CAPAN-2 (KRAS G12V); 6.9 nM in the assay on AGS (G12D); 3.24 nM in assay [5]. Further, the IC50 in assay [6] came out at 3.46 nM; with H2291 (KRAS G12F), 5.7 nM; in assay [7] it was 4.29 nM; in the assay on HPAC (KRAS G12D), 18.9 nM; with AsPC1 (KRAS G12D), 108 nM; with PANC0403 (KRAS G12D), 27.7 nM. For the same compound, the results for the IC50 with SW620 (KRAS G12V) [8] and in the assay with MiaPaCa2 (KRAS G12C) were 10.4 nM and 15.2 nM, respectively.

Turning to `CCc1c(F)ccc2cc(O)cc(-c3nc4c5c(nc(OC[C@@]67CCCN6C[C@H](F)C7)nc5c3F)N3CCCC[C@H]3CO4)c12` [compound 2, 5-ethyl-6-fluoro-4-[(8aS)-4-fluoro-2-{[(2R,7aS)-2-fluorotetrahydro-1H-pyrrolizin-7a(5H)-yl]methoxy}-8,8a,9,10,11,12-hexahydro-7-oxa-1,3,6,12a-tetraazabenzo[4,5]cyclohepta[1,2,3-de]naphthalen-5-yl]naphthalen-2-ol], the IC50 in the assay on GP2D (KRAS G12D) [1] is 11.3 nM; in the assay with H358 (KRAS G12C) it was 222 nM; in the assay on H23 (KRAS G12C), 145 nM; with HCT116 (KRAS G13D), greater than 3000 nM; in the assay with AGS (KRAS G12D) it was 86.2 nM; with GP2D (KRAS G12D) [2], 17.2 nM. The IC50 was determined as 44 nM in the assay with PANC0504 (KRAS G12D); 93.4 nM in assay [3]; 3.96 nM on KRAS G12D; 43.8 nM with SW620 (KRAS G12V) [4]; 60.2 nM with CAPAN-2 (KRAS G12V); 52.3 nM in the assay with AGS (G12D). The IC50 came to 22.1 nM in [5]; 19.6 nM in assay [6]; 37.2 nM in the assay on H2291 (KRAS G12F); 65 nM in [7]; 94.5 nM with HPAC (KRAS G12D); 213 nM in the assay with AsPC1 (KRAS G12D). The IC50 in the assay on PANC0403 (KRAS G12D) turned out to be 76.7 nM; in the assay with SW620 (KRAS G12V) [8], 41.4 nM; on KRAS G12V it was 1.83 nM; in the assay on MiaPaCa2 (KRAS G12C) it was 68.1 nM.
